Values after ≈ are worked out from the molar mass of the structure shown. Each block holds one compound with its values, some of them ahead of it.
Experiments:
T. rubrum [1] = test: aPI in the presence of ROS and RNS scavengers, CFU; format: cell-based; settings: scavenger added before aPI with curcumin photosensitizer
Protocol: (§4) Different ROS and RNS scavengers were used to evaluate the effect of radical stress inhibition on aPI efficacy. […] Scavengers were added to fungal suspensions immediately before initiation of aPI and incubated for 1 h with RPMI 1640 without phenol red plus 2% glucose at 28° C. To evaluate fungal viability, 150 μL of the fungal suspensions were plated onto PDA, and incubated at 28° C. for 72 hours. The HT TitierTACS™ assay kit (Trevigen, Gaithersburg, Md., USA) was used to evaluate the occurrence of apoptosis after aPI.

[2] = test system: Pseudomonas aeruginosa, MRSA, Escherichia coli, Klebsiella pneumoniae; settings: same concentration as generated from the nanoparticles; cited from earlier work
E. coli clinical strains = test: Bacterial growth susceptibility (OD600), E. coli; format: cell-based; settings: all concentrations tested, up to 24 h, vs untreated
Protocol: (§1) In this example, 8 clinical strains each of MRSA and E. coli were evaluated. For each bacterial strain, one colony of bacteria grown on tryptic soy agar (TSA) was suspended in 1 mL tryptic soy broth (TSB). One μL aliquots were transferred to a 100-well honeycomb plate with 199 μL TSB. This TSB contained either 1, 2.5, 5, or 10 mg/mL SNO-CAP-np, or 2.5, 5, or 10 mM captopril, and controls included wells containing bacteria and TSB alone. The background absorbance of each SNO-CAP-np concentration was accounted for by wells containing SNO-CAP-np and TSB alone. No background absorbance was measured for captopril. […] All wells were incubated for 24 hours at 37° C. and growth was assessed by measuring optical density at 600 nm (OD600) with a microplate reader (Bioscreen C, Growth Curves USA, Piscataway, N.J.). Each condition was measured in triplicate, and averages were calculated along with standard error of the mean (SEM).
(§2) E. coli and MRSA strains were incubated at 37° C. with and without various concentrations of SNO-CAP-np (1, 2.5, 5, or 10 mg/mL) or captopril ([…]) for 24 h. […] Each data set represents averages for 8 strains of either E. coli or MRSA, and conditions for each strain were measured in triplicate. […]

MRSA clinical strains = test: Bacterial growth susceptibility (OD600), MRSA; format: cell-based; settings: all concentrations tested, up to 24 h, vs untreated
Protocol: as §1, §2

E. coli = test: Colony-forming units (CFU) assay, E. coli; format: cell-based; settings: 24 h
Protocol: (§3) Following 24 h incubation of E. coli and MRSA, 10 μL aspirates from wells of the honeycomb plates were transferred to Eppendorf tubes with 990 μL PBS and gently vortexed. Controls were collected in the same fashion from wells containing only bacteria and TSB. The suspensions were serially diluted in PBS so that final concentrations were 10^−6 of the incubated concentration, and 100 μL aliquots were plated on TSA plates for 24 h. As with the absorbance assays, 8 clinical strains each of MRSA and E. coli were evaluated (data represents an average for the 8 strains each of E. coli and MRSA), and all conditions were measured in triplicate. CFU's were counted and recorded. Percent survival was determined by comparing CFU counts of SNO-CAP-np- or captopril-treated bacteria to CFU counts of untreated bacteria. P-value <0.05 by unpaired t-test was considered significant.

MRSA = test: Colony-forming units (CFU) assay, MRSA; format: cell-based; settings: 24 h
Protocol: as §3

T. rubrum microconidia = test: Antimicrobial photodynamic inhibition (aPI) optimization, CFU; format: cell-based
Protocol: In this example, a curcumin (Sigma-Aldrich, St. […] For susceptibility testing, the stock was dilution in RPMI 1640 medium to a final concentration of 40 μg/mL. For aPI, the stock was diluted in PBS to concentrations of 1.0, 10 and 100 μg/mL. […] A comparative concentration of curcumin incorporated in nanoparticles was used based on spectrophotometric release curves showing that each mg of curc-np contained 10 μg of curcumin. For susceptibility testing, 8 mg of curc-np was suspended in 1 mL of PBS and diluted in RPMI to a final concentration of […] (equivalent to 40 μg/mL of encapsulated curcumin). For aPI, 10 mg of curc-np was suspended in 1 mL of PBS and serially diluted to obtain 10 μg/mL, 100 μg/mL and 10 mg/L of curc-np (equivalent to 1.0, 10, and 100 μg/mL of encapsulated curcumin). The light source used was BLU-U® light model 4070 (DUSA pharmaceuticals, Wilmington, Mass., USA), which emits blue light at a wavelength of 417±5 nm. The doses used were 10 J/cm^2 (17 minutes), 20 J/cm^2 (34 minutes), and 40 J/cm^2 (68 minutes). BLU-U light was chosen as the light source due to its resonance with curcumin. For aPI optimization, fungal cells were submitted to different treatment conditions by varying the photosensitizer (PS) concentration and light dose, as described in Table 1, below. PS without photoactivation and blue light alone served as dark toxicity and light controls, respectively. […] [table]

T. rubrum [3] = test: Susceptibility testing (microdilution, CLSI M38-A) and growth curves; format: cell-based
Protocol: Susceptibility of T. rubrum to ground-state curcumin was tested by a microdilution method according to CLSI M38-A.49, 52 Itraconazole concentration ranged from 0.015 μg/mL to 8 μg/mL and curcumin and curc-np concentrations from 0.0012 μg/mL to 20 μg/mL. A 1% DMSO solution in control medium was evaluated. The MIC value was defined as the concentration required for 80% […] compared to untreated control. 12, 49 Growth kinetics of ground-state curcumin compared to aPI was also evaluated. Growth was evaluated for 7 days at 28° C. using a Bioscreen C growth curve system (Growth Curves USA, Piscataway, N.J., USA).

T. rubrum [4] = test: Intracellular ROS and RNS after aPI, flow cytometry; format: cell-based; settings: vs untreated
Protocol: Following aPI, samples were incubated with fluorescent probes for 30 minutes at 28° C., and subsequently analyzed with flow cytometry (Becton Dickinson™ LSRII, USA) using a 530/30 nm band pass filter for fluorescence detection. The Mean Fluorescence Intensity (MFI) was considered to determine radical production. Data analyses were performed using FlowJo 10.1 software.

T. rubrum cells = test: Apoptosis assay after aPI (HT TitierTACS kit); format: cell-based; settings: vs untreated control
Protocol: as §4

[5] = test system: J774.16 macrophages challenged with T. rubrum; test: Phagocytosis assay: J774.16 macrophages challenged with T. rubrum and treated with aPI; format: cell-based
Protocol: Macrophages were challenged with T. rubrum and treated with aPI to investigate the efficacy against infected mammalian cells. Specifically, J774.16 macrophages were grown at 37° C. with 10% CO2 in DMEM (Cellgro, Manassas, Va., USA). The fungal-macrophage cell proportion was 1:1, with 5.0×10^5 fungal cells to 5.0×10^5 macrophage cells. After challenging macrophages with T. rubrum microconidia, the cells were submitted to aPI, followed by incubation in the 10% CO2 chamber at 37° C. for 24 hours. The macrophages were lysed with cold distilled water and the lysate plated onto PDA and incubated at 28° C. for 72 hours.

T. rubrum [6] = test: In vivo antimicrobial photodynamic therapy (aPDT) pilot study; design: species or system BALB/c mice; settings: 500 μg/mL in coconut oil, 10 J/cm^2 blue light, one treatment, CFU three days post treatment
Protocol: BALB/c mice were subcutaneously infected with T. rubrum. Seven days post-infection, mice (n=2 per group) were submitted to one treatment of aPDT, using 500 μg/mL of curcumin and curc-np suspended in coconut oil and 10 J/cm^2 of blue light. Pre-irradiation incubation time was 30 minutes, under light protection. Tissue was homogenized and CFUs quantified three days post treatment.

Compound: OC[C@@H](O)[C@@H](O)[C@H](O)[C@H](O)CO [D-mannitol]
inhibition of aPI efficacy by scavenger (fungal growth, CFU) (T. rubrum [1]): none of the concentrations

Compound: Cl.O=S(=O)([O-])c1ccc(-c2c3nc(c(-c4ccc(S(=O)(=O)O)cc4)c4ccc([nH]4)c(-c4ccc(S(=O)(=O)O)cc4)c4nc(c(-c5ccc(S(=O)(=O)O)cc5)c5ccc2[nH]5)C=C4)C=C3)cc1.[Fe] [FeTPPs, 5,10,15,20-tetrakis-(4-sulfonatophenyl)-porphyrinato iron (III) chloride]
inhibition of aPI efficacy by scavenger (fungal growth, CFU) (T. rubrum [1]): T. rubrum growth was relatively intact despite aPI

Compound: N[C@@H](CCC(=O)N[C@@H](CSN=O)C(=O)NCC(=O)O)C(=O)O [GSNO, S-nitrosoglutathione]
antibacterial activity of an aliquot [2]: no antibacterial activity was observed

Compound: O.O=S(=O)([O-])c1cc(O)c(O)c(S(=O)(=O)[O-])c1.[Na+].[Na+] [Tiron, 4,5-dihydroxy-1,3-benzenedisulfonic acid disodiumsalt hydrate]
inhibition of aPI efficacy by scavenger (fungal growth, CFU) (T. rubrum [1]): none of the concentrations

Compound: C[C@H](CS)C(=O)N1CCC[C@H]1C(=O)O [captopril]
effect on E. coli growth (OD600) (E. coli clinical strains): showed an effect on E. coli growth in a dose dependent fashion
effect on MRSA growth (OD600) (MRSA clinical strains): did not have an effect
average E. coli survival compared with untreated controls (E. coli; 2.5 mM): 85%
average E. coli survival compared with untreated controls (E. coli; 5 mM): 83.6%
average E. coli survival compared with untreated controls (E. coli; 10 mM): 59.1%
average MRSA survival compared with untreated controls (MRSA; 2.5 mM): 99.3%
average MRSA survival compared with untreated controls (MRSA; 5 mM): 95.6%
average MRSA survival compared with untreated controls (MRSA; 10 mM): 69.5%

Compound: CC1(C)N([O])C(c2ccc(C(=O)O)cc2)=[N+]([O-])C1(C)C [carboxy-PTIO]
inhibition of aPI efficacy by scavenger (fungal growth, CFU) (T. rubrum [1]): T. rubrum growth was relatively intact despite aPI

Compound: COc1cc(/C=C/C(=O)CC(=O)/C=C/c2ccc(O)c(OC)c2)ccc1O [curcumin]
fungal viability (CFU) after aPI, lowest PS concentration (T. rubrum microconidia; 0.1 μg/mL, blue light 40 J/cm^2): did not differ significantly from untreated control
T. rubrum growth (CFU) after aPI at varying light dose (T. rubrum microconidia; 10 μg/mL, blue light 10, 20 and 40 J/cm^2): completely inhibited T. rubrum growth
fungal growth (CFU) after aPI, highest concentration (T. rubrum microconidia; 10 μg/mL, blue light 40 J/cm^2): complete growth inhibition
fungal viability (CFU) after aPI (T. rubrum microconidia; 1.0 and 10 μg/mL, blue light 40 J/cm^2, vs untreated): significantly decreased fungal viability
fungal burden, PS without photoactivation (dark toxicity) (T. rubrum microconidia; three concentrations tested, no light): did not reduce fungal burden
fungal growth reduction, ground-state (no photoactivation) (T. rubrum [3]; seven-day incubation, 0.0012-20 μg/mL): did not yield significant 80% reduction of fungal growth
fold change in NO. production (T. rubrum [4]; DAF-FM probe): 6 fold
fold-change in ONOO. production (T. rubrum [4]; DHR 123 probe): 7 fold
fold-change in ROS production (T. rubrum [4]; H2DCFDA probe): 17 fold
apoptosis of T. rubrum cells after irradiation with blue light (T. rubrum cells): significant trend towards increased apoptosis
apoptosis of T. rubrum cells without irradiation (T. rubrum cells): did not induce apoptosis
macrophage-induced destruction of T. rubrum cells, no aPI ([5]; ground state): caused a decrease in macrophage-induced destruction of T. rubrum cells
fungal burden (CFU) in macrophages after aPI ([5]; vs untreated, dark toxicity and blue light controls): significantly reduced fungal burden
fungal burden compared to untreated control (T. rubrum [6]): did not significantly reduce fungal burden

MIC (T. rubrum [3]; Trichophyton rubrum, clinical T. rubrum strain): 0.25 µg/mL (≈ 0.354 µM)
Compound: CCC(C)n1ncn(-c2ccc(N3CCN(c4ccc(OCC5COC(Cn6cncn6)(c6ccc(Cl)cc6Cl)O5)cc4)CC3)cc2)c1=O (centres unmarked) [itraconazole]

Compound: CC(=O)C(=O)[O-].[Na+] [sodium pyruvate]
inhibition of aPI efficacy by scavenger (fungal growth, CFU) (T. rubrum [1]): none of the concentrations
